According to ChEMBL document CHEMBL5108009, “Positron Emission Tomography (PET) Imaging Tracers for Serotonin Receptors” (J Med Chem, 2022):
pIC50, pKd, pKi: −log10 of the molar value.

Assays:
[1] = Drug uptake ratio in cynomolgus monkey globus pallidus to cerebellum at 30 to 40 mins postinjection; format: ADME, organism-based, Macaca fascicularis; conditions: in vivo, time 30-40 min
[2] = Drug metabolism in monkey plasma assessed as unchanged compound at 120 mins postinjection relative to control; format: ADME, organism-based, Macaca mulatta; conditions: rhesus monkey, read-out: Stability
[3] = Drug uptake ratio in cynomolgus monkey occipital cortex to cerebellum at 30 to 40 mins postinjection; format: ADME, organism-based, Macaca fascicularis; conditions: in vivo, time 30-40 min
[4] = biological target: T1, 5-hydroxytryptamine receptor 1A (Homo sapiens, UniProt P08908)
T1 sequence (P08908 whole entry): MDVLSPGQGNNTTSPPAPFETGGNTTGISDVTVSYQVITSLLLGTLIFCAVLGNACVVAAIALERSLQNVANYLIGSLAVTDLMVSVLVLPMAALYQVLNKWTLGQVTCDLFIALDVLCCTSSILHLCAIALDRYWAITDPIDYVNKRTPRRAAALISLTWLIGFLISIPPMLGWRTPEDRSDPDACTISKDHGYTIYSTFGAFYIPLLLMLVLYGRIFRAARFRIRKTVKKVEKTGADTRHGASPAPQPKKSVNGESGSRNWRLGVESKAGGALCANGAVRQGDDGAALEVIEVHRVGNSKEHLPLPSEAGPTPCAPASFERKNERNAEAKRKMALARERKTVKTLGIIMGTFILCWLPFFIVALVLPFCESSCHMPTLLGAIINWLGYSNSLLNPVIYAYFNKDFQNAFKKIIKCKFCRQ

[5] = Drug uptake in rat brain; format: ADME, tissue-based; conditions: in vivo
[6] = Drug uptake in monkey brain measured after 7 mins postinjection; format: ADME, organism-based, Macaca mulatta; conditions: rhesus monkey, in vivo
D(2) dopamine receptor [7] = biological target: T2, D(2) dopamine receptor (Rattus norvegicus, UniProt P61169); test: Displacement of [3H]-haloperidol from rat striatal homogenate D2 receptor; format: tissue-based, Striatum
[8] = biological target: 5-hydroxytryptamine receptor 2A (Rattus norvegicus, UniProt P14842); test: Displacement of [3H]-spiperone from rat frontal cortex homogenate 5-HT2A receptor; format: tissue-based
[9] = biological target: T3, Alpha-1A adrenergic receptor (Rattus norvegicus, UniProt P43140); test: Displacement of [3H]-WB4101 from rat forebrain homogenate alpha 1 adrenergic receptor; format: tissue-based
T3 sequence (P43140 whole entry): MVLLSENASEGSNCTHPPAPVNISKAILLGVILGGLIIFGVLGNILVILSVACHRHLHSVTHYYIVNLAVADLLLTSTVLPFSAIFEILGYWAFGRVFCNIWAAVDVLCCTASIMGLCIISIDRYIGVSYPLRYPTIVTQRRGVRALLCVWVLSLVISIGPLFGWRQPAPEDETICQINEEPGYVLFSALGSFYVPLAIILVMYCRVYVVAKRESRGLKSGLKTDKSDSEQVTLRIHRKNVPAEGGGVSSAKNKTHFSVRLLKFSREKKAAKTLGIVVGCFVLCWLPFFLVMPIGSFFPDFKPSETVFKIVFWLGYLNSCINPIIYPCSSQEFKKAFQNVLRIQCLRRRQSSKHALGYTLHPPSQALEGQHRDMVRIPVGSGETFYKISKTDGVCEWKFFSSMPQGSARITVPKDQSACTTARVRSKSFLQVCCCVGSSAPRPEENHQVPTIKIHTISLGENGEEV

[10] = Ratio of drug uptake in human frontal cortex to cerebellum at 15 mCi measured after 60 mins postinjection by PET imaging; format: ADME, organism-based, Brain frontal cortex/cerebellum; conditions: in vivo, 1 h
[11] = Ratio of drug uptake in human frontal cortex to cerebellum at 15 mCi measured after 30 mins postinjection by PET imaging; format: ADME, organism-based, Brain frontal cortex/cerebellum; conditions: in vivo, 0.5 h
[12] = biological target: T4, Serotonin 2 (5-HT2) receptor (Homo sapiens, UniProt P41595+P28223+P28335); test: Binding affinity to cerebrum 5-HT2 receptor (unknown origin); format: tissue-based
[13] = Binding affinity to rhesus monkey 5-HT1D receptor assessed as inhibition constant; design: species or system Macaca mulatta
[14] = Binding affinity to rhesus monkey 5-HT1B receptor assessed as inhibition constant; design: species or system Macaca mulatta
[15] = biological target: T1, 5-hydroxytryptamine receptor 1A; test: Inhibition of 5-HT1A receptor (unknown origin)
[16] = Ratio of drug uptake in monkey hippocampus to cerebellum; format: ADME, tissue-based, Macaca mulatta; conditions: rhesus monkey, in vivo
[17] = Ratio of drug uptake in monkey anterior cingulate cortex to cerebellum; format: ADME, tissue-based, Macaca mulatta; conditions: rhesus monkey, in vivo
[18] = Drug uptake in cynomolgus monkey frontal cortex administered iv measured as percentage of injected dose by PET imaging relative to control; format: ADME, organism-based, Macaca fascicularis; conditions: in vivo
[19] = Binding affinity to pig 5-HT1B receptor (unknown origin) assessed as inhibition constant
[20] = Ratio of drug uptake in macaque brain occipital cortex to cerebellum at 3680 to 4035 Ci/mmol, iv by PET imaging upto 100 mins relative to control; format: ADME, organism-based; conditions: macaca, in vivo, 1.667 h, dose 3680-4035 Ci/mmol
[21] = Drug uptake in macaque brain at 3680 to 4035 Ci/mmol, iv measured as percentage of injected dose by PET imaging at 7.5 mins relative to control; format: ADME, organism-based; conditions: macaca, in vivo, 0.125 h, dose 3680-4035 Ci/mmol
[22] = Ratio of drug uptake in macaque brain striatopallidal complex to cerebellum at 3680 to 4035 Ci/mmol, iv by PET imaging upto 100 mins relative to control; format: ADME, organism-based; conditions: macaca, in vivo, 1.667 h, dose 3680-4035 Ci/mmol
[23] = Ratio of drug uptake in macaque brain frontal cortex to cerebellum at 3680 to 4035 Ci/mmol, iv by PET imaging upto 100 mins relative to control; format: ADME, organism-based; conditions: macaca, in vivo, 1.667 h, dose 3680-4035 Ci/mmol
[24] = biological target: T5, 5-hydroxytryptamine receptor 1B (Cavia porcellus, UniProt O08892); test: Binding affinity to guinea pig 5-HT1B receptor assessed as dissociation constant by autoradiographic analysis
[25] = Ratio of drug uptake in macaque brain thalamus to cerebellum at 3680 to 4035 Ci/mmol, iv by PET imaging upto 100 mins relative to control; format: ADME, organism-based; conditions: macaca, in vivo, 1.667 h, dose 3680-4035 Ci/mmol
[26] = biological target: T5, 5-hydroxytryptamine receptor 1B; test: Binding affinity to guinea pig 5-HT1B receptor assessed as inhibition constant by autoradiographic analysis
Histamine H1 receptor = Histamine H1 receptor (Cavia porcellus, UniProt P31389); test: Binding affinity to guinea pig cerebellum homogenate membrane H1 receptor incubated for 30 mins; format: cell membranes
[27] = biological target: T3, Alpha-1A adrenergic receptor; test: Binding affinity to rat forebrain homogenate membrane alpha 1 adrenergic receptor incubated for 10 mins; format: cell membranes
D(2) dopamine receptor [28] = biological target: T2, D(2) dopamine receptor; test: Binding affinity to rat striatum homogenate membrane D2 receptor incubated for 10 mins; format: cell membranes
[29] = biological target: T4, Serotonin 2 (5-HT2) receptor; test: Binding affinity to 5-HT2 receptor (unknown origin) assessed as dissociation constant; format: protein assay

T2 sequence (P61169 whole entry): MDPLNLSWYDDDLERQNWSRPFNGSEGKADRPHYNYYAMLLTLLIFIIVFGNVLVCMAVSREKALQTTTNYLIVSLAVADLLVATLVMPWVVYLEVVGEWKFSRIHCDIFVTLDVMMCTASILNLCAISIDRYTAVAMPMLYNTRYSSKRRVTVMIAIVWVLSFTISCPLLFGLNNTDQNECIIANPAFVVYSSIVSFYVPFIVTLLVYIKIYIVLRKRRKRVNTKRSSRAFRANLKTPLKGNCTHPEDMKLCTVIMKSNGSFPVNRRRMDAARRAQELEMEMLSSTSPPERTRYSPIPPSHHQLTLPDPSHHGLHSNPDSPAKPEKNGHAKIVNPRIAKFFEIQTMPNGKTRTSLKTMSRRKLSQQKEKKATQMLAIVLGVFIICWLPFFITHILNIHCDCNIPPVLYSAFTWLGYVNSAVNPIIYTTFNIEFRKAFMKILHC
T5 sequence (O08892 whole entry): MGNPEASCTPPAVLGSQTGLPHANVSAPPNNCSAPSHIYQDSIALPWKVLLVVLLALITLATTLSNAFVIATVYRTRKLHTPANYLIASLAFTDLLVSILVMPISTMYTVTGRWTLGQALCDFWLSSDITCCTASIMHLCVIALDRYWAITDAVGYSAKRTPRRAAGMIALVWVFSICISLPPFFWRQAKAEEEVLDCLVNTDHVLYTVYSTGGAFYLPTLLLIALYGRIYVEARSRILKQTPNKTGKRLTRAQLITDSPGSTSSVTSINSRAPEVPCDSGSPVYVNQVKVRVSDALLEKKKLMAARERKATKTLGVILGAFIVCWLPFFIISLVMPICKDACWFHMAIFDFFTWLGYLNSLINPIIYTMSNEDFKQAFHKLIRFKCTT
Chain of 5-hydroxytryptamine receptor 2A (P14842 whole entry): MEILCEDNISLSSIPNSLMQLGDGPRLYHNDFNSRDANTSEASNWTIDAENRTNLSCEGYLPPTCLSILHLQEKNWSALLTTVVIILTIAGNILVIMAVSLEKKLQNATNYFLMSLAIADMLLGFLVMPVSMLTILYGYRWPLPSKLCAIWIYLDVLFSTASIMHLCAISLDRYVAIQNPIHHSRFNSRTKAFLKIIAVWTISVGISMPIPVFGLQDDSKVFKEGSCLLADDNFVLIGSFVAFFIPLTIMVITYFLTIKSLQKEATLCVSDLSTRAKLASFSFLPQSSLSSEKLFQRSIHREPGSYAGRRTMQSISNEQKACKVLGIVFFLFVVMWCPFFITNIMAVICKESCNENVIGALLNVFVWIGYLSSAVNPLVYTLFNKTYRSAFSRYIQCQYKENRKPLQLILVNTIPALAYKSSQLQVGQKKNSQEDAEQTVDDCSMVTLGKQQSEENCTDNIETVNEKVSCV
Chain of Histamine H1 receptor (P31389 whole entry): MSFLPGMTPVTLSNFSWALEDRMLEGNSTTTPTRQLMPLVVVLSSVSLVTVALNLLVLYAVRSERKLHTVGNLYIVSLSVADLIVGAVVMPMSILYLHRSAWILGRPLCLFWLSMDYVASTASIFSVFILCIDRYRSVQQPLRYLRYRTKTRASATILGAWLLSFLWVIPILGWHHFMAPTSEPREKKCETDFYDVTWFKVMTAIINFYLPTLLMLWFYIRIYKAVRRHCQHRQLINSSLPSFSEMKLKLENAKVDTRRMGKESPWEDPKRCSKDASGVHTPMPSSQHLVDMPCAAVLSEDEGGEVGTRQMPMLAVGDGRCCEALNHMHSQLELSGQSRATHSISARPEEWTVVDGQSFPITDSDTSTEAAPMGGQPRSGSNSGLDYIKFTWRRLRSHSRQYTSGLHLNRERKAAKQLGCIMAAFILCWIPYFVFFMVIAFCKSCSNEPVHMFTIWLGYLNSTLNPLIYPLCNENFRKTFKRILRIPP

[11CH3]N1CCN(c2cc(F)cc3c(=O)cc(C(=O)Nc4ccc(N5CCOCC5)c(F)c4)oc23)CC1
Ratio [1]: 2.5
remaining at 2 h [2]: > 40%
Ratio [3]: 2.2

[11CH3]Oc1ccc2cccc(N3CCN(CCNC(=O)c4ccc(F)cc4)CC3)c2c1
pKi [4]: 9.01
SUV [5]: 2
SUV [6]: 7

Cc1nc2n(c(=O)c1CCN1CCC(C(=O)c3ccc(F)cc3)CC1)CCS2 [SETOPERONE]
pKi (D(2) dopamine receptor [7]): 7.62
pKi [8]: 8.64
pKi [9]: 7.92

CCN(CC)C(=O)[C@@H]1C=C2c3cccc4c3c(c(Br)n4[11CH3])CC2N(C)C1 (stereo partly specified)
Ratio [10]: 2.7
Ratio [11]: 1.7
Ki [12]: 0.5 nM

COC(C)(C)c1ccc(N2CC[C@@H](Cc3ccccc3N3CCN(C)CC3)C2=O)cc1
pKi [13]: 7.92
pKi [14]: 8.92

CCCN(CCC)C1CCc2ccc3[nH]cc(C=O)c3c2C1 (stereo unspecified)
pKi [4]: 8.92
pIC50 [15]: 8.92

O=C(NCCN1CCN(c2cccc3c2OCCO3)CC1)c1ccc([18F])cc1
Ratio [16]: 1.7
Ratio [17]: 1.7

CCC(=O)N1CCN(c2ccc(NC(=O)c3cc(=O)c4cc(F)cc(N5CCN([11CH3])CC5)c4o3)cc2)CC1
Drug uptake [18]: 0.7%
pKi [19]: 8.70

Cc1ccc(N2CCN([11CH3])CC2)c2oc(C(=O)Nc3ccc(N4CCOCC4)cc3)cc(=O)c12
Ratio [20]: 4.2
Drug uptake [21]: 3%
Ratio [22]: 4.1
Ratio [23]: 2.6
pKd [24]: 9.40
Ratio [25]: 2.6
pKi [26]: 11.00

O=C(c1ccc(F)cc1)C1CCN(CCn2c(=O)[nH]c3ccccc3c2=O)CC1 [KETANSERIN]
pKi (Histamine H1 receptor): 8.00
pKi [27]: 8.00
pKi (D(2) dopamine receptor [28]): 6.66

CN(C)CCO/N=C(/C=C/c1ccc(O)cc1)c1ccccc1F [EPLIVANSERIN]
Kd [29]: 1.2 nM
